Read-outs that look alike come from different tables or passages of the source. A value given as a limit tells only on which side of the number the result lay.

Results on 3 molecules are retold here after EP0523085B1, “PEROXY ACID BLEACH PRECURSORS AND DETERGENT COMPOSITIONS CONTAINING THEM” (priority 1990, dated 1991).

A short description of series [1]: water solubility at 10°C (saturated solution in distilled water). In kind it is physicochemical. As to the method:
For the purposes of the present invention the solubility of a precursor in water is defined as the weight of the compound that can be dissolved in 100ml distilled water at 10°C, expressed on a percentage basis. Precursors in accordance with the invention have water solubilities of at least 25% by weight, more preferably at least 50% and most preferably at least 75%.
The water solubility of this material was determined by cooling 2.3g distilled water to 10°C and adding the precursor until no further material would dissolve. A slight excess was then added and the temperature raised to 25°C to give complete solution before recooling to 10°C, ensuring that crystallisation of the precursor took place from a saturated solution.

A short description of series [2]: perhydrolysis with sodium perborate tetrahydrate at 10°C, iodometric titration. Particulars: for rates of perhydrolysis, comparison of the two precursors: each predissolved (KDAES in distilled water, TAED in dimethyl formamide); for time for dissolution and perhydrolysis to be substantially complete: precursor added in solid form, KDAES assumed to be 82% active. The procedure: A jacketed 1 litre glass vessel fitted with a magnetic stirrer was used to carry out the perhydrolysis and the temperature of the solution was controlled at 10°C by means of a Thermomix (RTM) cooling unit which was used to circulate the cooled water through a jacket around the perhydrolysis vessel
The value obtained for the blank was subtracted from the values obtained at the various time intervals to give the figure from which the percentage perhydrolysis was calculated.

In the case of `CC(=O)N(CCC[N+](C)(C)C)C(C)=O.[Br-]` [DTAPB, N,N-diacetyl trimethylammonio propylamine bromide], the solubility in series [1] came to 75.6%. Further, the “precursor perhydrolysed within 5 minutes” value in series [2] (solid product, on the basis of a purity of 97.6%) is given as “approx. 92%”.
In series [1] (distilled water, 10°C), `CC(=O)N(CCS(=O)(=O)[O-])C(C)=O.[K+]` [KDAES, potassium N,N-diacetylaminoethane sulphonate] displayed a solubility of 66.6%. Besides, the “amount of the precursor dissolved” value in series [1] (in 2.3g distilled water at 10°C) is 4.71 g. Further, in series [2], the “rates of perhydrolysis, comparison of the two precursors” value is reported as “broadly similar”; the “time for dissolution and perhydrolysis to be substantially complete” value was no more than 5 min.
In the case of “tetra acetyl ethylene diamine [TAED, reference compound]”, in series [2], the “rates of perhydrolysis, comparison of the two precursors” value was “broadly similar”; the “time for dissolution and perhydrolysis to be substantially complete” value is “at least 30 minutes”.
